Where “and” joins values, the source holds several entries; their conditions need not be identical. Equal values may be shown once.
Assays:
[1] = target: T1, MeV L H589Y (Measles virus, UniProt P12576, H589Y); assay: MeV minigenome dose-response assay, L H589Y; type: cell-based; settings: for minigenome activity, individual repeat: H589Y, Figure 1E
T1 construct: expressed in transfected cells; host or cells: BSR-T7/5

[2] = target: MeV L1708 (Measles virus, UniProt Q9WMB3); parameters: method as in PMID 32661315; settings: BLI, MeV L1708 WT; reported previously ref 36; cited from earlier work
[3] = target: T2, MeV L (Measles virus, UniProt P12576); assay: MeV minigenome dose-response assay, L WT; type: cell-based; settings: for minigenome activity, individual repeat: WT, Figure 1E
T2 construct: expressed in transfected cells; host or cells: BSR-T7/5

[4] = target: T3, MeV L V1239A (Measles virus, UniProt P12576, V1239A); assay: MeV minigenome dose-response assay, L V1239A; type: cell-based; settings: for minigenome activity, individual repeat: Figure 1E
T3 construct: expressed in transfected cells; host or cells: BSR-T7/5

[5] = target: T4, MeV L I1009F (Measles virus, UniProt P12576, I1009F); assay: MeV minigenome dose-response assay, L I1009F; type: cell-based; settings: EC50, L I1009F vs WT
T4 construct: expressed in transfected cells; host or cells: BSR-T7/5

[6] = target: MeV L1708 I1009F; parameters: method as in PMID 32661315; settings: BLI, reported previously ref 36; cited from earlier work
[7] = target: T5, MeV L Y1106S (Measles virus, UniProt P12576, Y1106S); parameters: method as in PMID 32661315; settings: minigenome, reported previously ref 36; cited from earlier work
T5 construct: expressed in transfected cells; host or cells: BSR-T7/5

[8] = target: T6, MeV L T776A (Measles virus, UniProt P12576, T776A); assay: MeV minigenome dose-response assay, L T776A; type: cell-based
T6 construct: expressed in transfected cells; host or cells: BSR-T7/5

[9] = target: T7, MeV L T1010N (Measles virus, UniProt P12576, T1010N); assay: MeV minigenome dose-response assay, L T1010N; type: cell-based; settings: EC50, L T1010N vs WT
T7 construct: expressed in transfected cells; host or cells: BSR-T7/5

[10] = target: T8, MeV L S768A (Measles virus, UniProt P12576, S768A); assay: MeV minigenome dose-response assay, L S768A; type: cell-based
T8 construct: expressed in transfected cells; host or cells: BSR-T7/5

[11] = target: T7, MeV L T1010N; parameters: method as in PMID 32661315; settings: minigenome, reported previously ref 36; cited from earlier work
[12] = target: T5, MeV L Y1106S; assay: MeV minigenome dose-response assay, L Y1106S; type: cell-based; settings: EC50, L Y1106S vs WT
[13] = target: T9, MeV L E858D (Measles virus, UniProt P12576, E858D); parameters: method as in PMID 32661315; settings: minigenome, reported previously ref 36; cited from earlier work
T9 construct: expressed in transfected cells; host or cells: BSR-T7/5

[14] = target: MeV L1708 E858D; parameters: method as in PMID 32661315; settings: BLI, reported previously ref 36; cited from earlier work
[15] = target: T4, MeV L I1009F; parameters: method as in PMID 32661315; settings: minigenome, reported previously ref 36; cited from earlier work
[16] = target: T9, MeV L E858D; assay: MeV minigenome dose-response assay, L E858D; type: cell-based; settings: EC50, L E858D vs WT
[17] = target: MeV L1708 Y1106S; parameters: method as in PMID 32661315; settings: BLI, reported previously ref 36; cited from earlier work
[18] = target: T10, MeV L L1170F (Measles virus, UniProt P12576, L1170F); assay: MeV minigenome dose-response assay, L L1170F; type: cell-based; settings: for minigenome activity, individual repeat: Figure 1E
T10 construct: expressed in transfected cells; host or cells: BSR-T7/5

In the case of `NC(=O)c1c(F)cccc1-c1cccc2cnccc12` [GHP-88309], the “fold change to WT” value ([1]; EC50, L H589Y vs WT) is reported as 1.8, the “minigenome activity, individual repeat” value ([1]; GHP-88309 0.0457247 µM) is reported as 99.134 and 165.3 and 161.609 and the “minigenome activity, individual repeat” value ([1]; GHP-88309 0.137174 µM) is reported as 129.072 and 126.646 and 70.0978. For the same compound, the “minigenome activity, individual repeat” value ([1]; GHP-88309 0.411523 µM) was 102.614 and 60.5017 and 60.0219, the “minigenome activity, individual repeat” value ([1]; GHP-88309 1.23457 µM) was 96.1391 and 78.5761 and 76.4935 and the “minigenome activity, individual repeat” value ([1]; GHP-88309 3.7037 µM) was 76.5304 and 44.0459 and 30.8961. The “minigenome activity, individual repeat” value ([1]; GHP-88309 11.1111 µM) was 19.3913 and 21.0627 and 38.9421, the “minigenome activity, individual repeat” value ([1]; GHP-88309 33.3333 µM) was 3.067 and 1.981 and 4.217 and the “minigenome activity, individual repeat” value ([1]; GHP-88309 100 µM) was -0.2175 and 2.229 and 0.06723. For the same compound, the EC50 ([1]; minigenome, L H589Y) was 3.91 µM, the Kd [2] was 6.2 µM and the “minigenome activity, individual repeat” value ([3]; GHP-88309 0.411523 µM) was 87.746 and 92.4701. The “minigenome activity, individual repeat” value ([3]; GHP-88309 1.23457 µM) was 77.6244 and 62.4876 and 68.5227 and 90 and 86 and 112, the “minigenome activity, individual repeat” value ([3]; GHP-88309 3.7037 µM) was 31.991 and 34.7895 and 30.6512 and 25 and 32 and 29 and the “minigenome activity, individual repeat” value ([3]; GHP-88309 11.1111 µM) was 2.411 and 2.106 and 2.445 and 2 and 4 and 3. The “minigenome activity, individual repeat” value ([3]; GHP-88309 33.3333 µM) was 1.248 and 0.5543 and 0.7091 and -4 and 2 and 3, the “minigenome activity, individual repeat” value ([3]; GHP-88309 100 µM) was 0.7732 and 1.544 and 0.3453 and the EC50 ([3]; minigenome, L WT) was 2.4 µM. The “fold change to WT” value ([4]; EC50, L V1239A vs WT) was 0.7, the “minigenome activity, individual repeat” value ([4]; GHP-88309 0.0457247 µM, L V1239A) was 96 and 97 and 118 and the “minigenome activity, individual repeat” value ([4]; GHP-88309 0.137174 µM, L V1239A) was 120 and 103. The “minigenome activity, individual repeat” value ([4]; GHP-88309 0.411523 µM, L V1239A) was 66 and 59 (2×), the “minigenome activity, individual repeat” value ([4]; GHP-88309 1.23457 µM, L V1239A) was 80 and 79 (2×) and the “minigenome activity, individual repeat” value ([4]; GHP-88309 3.7037 µM, L V1239A) was 33 (2×) and 30. The “minigenome activity, individual repeat” value ([4]; GHP-88309 11.1111 µM, L V1239A) was 2 (2×) and 3, the “minigenome activity, individual repeat” value ([4]; GHP-88309 33.3333 µM, L V1239A) was -2 and 1 (2×) and the EC50 ([4]; minigenome, L V1239A) was 2.03 µM. For the same compound, the “fold change to WT” value [5] was 8.3, the Kd [6] was 68.3 µM and the EC50 [7] was over 100 µM. For the same compound, the “fold change to WT” value ([8]; EC50, L T776A vs WT) was 1.1, the EC50 ([8]; minigenome, L T776A) was 2.39 µM and the “fold change to WT” value [9] was 3.8. The “fold change to WT” value ([10]; EC50, L S768A vs WT) was 0.6, the EC50 ([10]; minigenome, L S768A) was 1.26 µM and the EC50 [11] was 8.36 µM. The “fold change to WT” value [12] was over 50, the EC50 [13] was 15 µM and the Kd [14] was 8.6 µM. The EC50 [15] was 18.6 µM, the “fold change to WT” value [16] was 6.7 and the Kd [17] was over 300 µM. For the same compound, the “fold change to WT” value ([18]; EC50, L L1170F vs WT) was 0.7, the “minigenome activity, individual repeat” value ([18]; GHP-88309 0.0457247 µM, L L1170F) was 120 and 119 and 105 and the “minigenome activity, individual repeat” value ([18]; GHP-88309 0.137174 µM, L L1170F) was 97 and 98 and 103. The “minigenome activity, individual repeat” value ([18]; GHP-88309 0.411523 µM, L L1170F) was 56 and 67 and 65, the “minigenome activity, individual repeat” value ([18]; GHP-88309 1.23457 µM, L L1170F) was 92 (2×) and 86 and the “minigenome activity, individual repeat” value ([18]; GHP-88309 3.7037 µM, L L1170F) was 27 and 26 and 21. For the same compound, the “minigenome activity, individual repeat” value ([18]; GHP-88309 11.1111 µM, L L1170F) was 0 (2×) and 1, the “minigenome activity, individual repeat” value ([18]; GHP-88309 33.3333 µM, L L1170F) was -1 and 0 (2×) and the EC50 ([18]; minigenome, L L1170F) was 2.41 µM.
